Consider 8 molecules from PubChem BioAssay (NCI).

Among the test systems are IGROV1 ovarian; HCC-2998 colon; OVCAR-3 ovarian; COLO 205 colon; HOP-92 NSCLC; MDA-MB-231 breast; DU-145 prostate; MCF7 breast; ACHN renal; UO-31 renal.
What all share (assay): DTP human tumour cell line panel, 48 h

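All cell lines were grown in 96-well plates and treated with compound for 48 hours. At the GI50, growth is halved. TGI denotes the concentration required for complete inhibition of growth.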

A word on the GI50: it is the concentration at which growth is held to half of that of the control. By TGI is commonly meant the concentration giving total growth inhibition. Low readings indicate more potent growth arrest, high ones less potent growth arrest.

As to `CCC(c1ccc(OC)cc1)C(CC)c1ccc(O)c(CN2CCCC2)c1` (stereo not given), the GI50 with IGROV1 ovarian is 8.63 µM; in the experiment with HCC-2998 colon, 2.29 µM; in the experiment on OVCAR-3 ovarian, 6.15 µM; in the experiment on COLO 205 colon it was 1.81 µM; in the experiment on HOP-92 NSCLC it was 1.57 µM; in the experiment on MDA-MB-231 breast it was 2.49 µM. Moreover, the GI50 with DU-145 prostate was 5.8 µM; with MCF7 breast it was 2.74 µM; in the experiment on ACHN renal, 4.57 µM; in the experiment with UO-31 renal, 3.91 µM. In addition, the TGI is 23.6 µM in the experiment on IGROV1 ovarian; 4.38 µM with HCC-2998 colon; 19.5 µM in the experiment with OVCAR-3 ovarian; 3.71 µM in the experiment with COLO 205 colon; 3.58 µM in the experiment with HOP-92 NSCLC; 6.03 µM with MDA-MB-231 breast. The TGI with DU-145 prostate came out at 19.1 µM; in the experiment with MCF7 breast it was 6.47 µM; in the experiment on ACHN renal it was 18.5 µM; in the experiment with UO-31 renal, 17 µM.

Regarding `O=C1/C(=C/c2ccccc2)CN(CCC(=O)N2C/C(=C\c3ccccc3)C(=O)/C(=C/c3ccccc3)C2)C/C1=C\c1ccccc1`, the GI50 in the experiment with IGROV1 ovarian was 5.19 µM; with HCC-2998 colon, 1.71 µM; in the experiment on OVCAR-3 ovarian, 3.07 µM; in the experiment with COLO 205 colon it was 12.4 µM; with HOP-92 NSCLC, 10.4 µM; in the experiment on MDA-MB-231 breast it was 10.7 µM. The GI50 in the experiment with DU-145 prostate is 21.1 µM; with MCF7 breast, 0.182 µM; in the experiment with ACHN renal it was 8.92 µM; with UO-31 renal it was 7.51 µM. The TGI with IGROV1 ovarian was 21.9 µM; with HCC-2998 colon, 8 µM; in the experiment on OVCAR-3 ovarian, 19.2 µM; in the experiment with COLO 205 colon, above 67.5 µM; in the experiment on HOP-92 NSCLC, 29.7 µM; in the experiment with MDA-MB-231 breast it was 56.2 µM. Also, the TGI was found to be 73.9 µM with DU-145 prostate, 26.3 µM with MCF7 breast, 30.3 µM with ACHN renal and 21.7 µM in the experiment on UO-31 renal.

With `NC(=O)c1cc(Cl)ccc1NC(=O)c1ccccc1-c1ccccc1`, the GI50 in the experiment with IGROV1 ovarian is 1.55 µM; in the experiment with HCC-2998 colon, 2.99 µM; in the experiment on OVCAR-3 ovarian, 0.328 µM; with COLO 205 colon it was 0.923 µM; with HOP-92 NSCLC it was 3.96 µM; in the experiment on MDA-MB-231 breast, 1.89 µM. Also, the GI50 was 0.597 µM with DU-145 prostate, 0.457 µM in the experiment with MCF7 breast, 0.799 µM in the experiment on ACHN renal and 1.97 µM in the experiment on UO-31 renal. The TGI in the experiment with IGROV1 ovarian was above 100 µM; with HCC-2998 colon, 31.6 µM; with OVCAR-3 ovarian, 2.59 µM; with COLO 205 colon, 5.52 µM; in the experiment with HOP-92 NSCLC, 61.5 µM; in the experiment with MDA-MB-231 breast, 43.5 µM. For the same molecule, the TGI is 16 µM in the experiment on DU-145 prostate, above 100 µM in the experiment on MCF7 breast, 87.6 µM in the experiment on ACHN renal and above 100 µM in the experiment with UO-31 renal.

For `C[C@@H](Oc1cc(NS(=O)(=O)N2CCC2)nc(SCc2cccc(F)c2F)n1)[C@@H](O)CO`, the GI50 in the experiment on IGROV1 ovarian, in the experiment on HCC-2998 colon, with OVCAR-3 ovarian, in the experiment with COLO 205 colon, in the experiment with HOP-92 NSCLC and with MDA-MB-231 breast was above 100 µM in each case. Further, the GI50 with DU-145 prostate, with MCF7 breast, with ACHN renal and in the experiment on UO-31 renal was above 100 µM throughout. Further, the TGI with IGROV1 ovarian, in the experiment with HCC-2998 colon, in the experiment on OVCAR-3 ovarian, in the experiment on COLO 205 colon, in the experiment with HOP-92 NSCLC and in the experiment on MDA-MB-231 breast was above 100 µM throughout. Further, the concentration for total growth inhibition (TGI) in the experiment on DU-145 prostate, in the experiment on MCF7 breast, in the experiment on ACHN renal and in the experiment with UO-31 renal was above 100 µM in each case.

Take `COc1cc2c(=O)n(CCCn3ccnc3)c3c4cc5c(cc4ccc3c2cc1OC)OCO5`: the GI50 with IGROV1 ovarian was 1.16 µM; in the experiment on HCC-2998 colon it was 13.4 µM; in the experiment with OVCAR-3 ovarian, 0.344 µM; with COLO 205 colon, 0.291 µM; in the experiment with HOP-92 NSCLC, 0.831 µM; with MDA-MB-231 breast it was 1.38 µM. The GI50 in the experiment on DU-145 prostate was 0.51 µM; in the experiment with MCF7 breast, 0.0999 µM; in the experiment on ACHN renal it was 0.278 µM; in the experiment with UO-31 renal, 0.262 µM. For the same molecule, the TGI is above 86.6 µM in the experiment with IGROV1 ovarian; above 100 µM in the experiment with HCC-2998 colon; above 100 µM in the experiment on OVCAR-3 ovarian; above 100 µM with COLO 205 colon; 28.9 µM in the experiment on HOP-92 NSCLC; above 100 µM in the experiment with MDA-MB-231 breast. In addition, the TGI in the experiment on DU-145 prostate is above 100 µM; in the experiment on MCF7 breast, above 100 µM; in the experiment on ACHN renal it was 1.36 µM; in the experiment on UO-31 renal, above 100 µM.

For `CN(C1=NS(=O)(=O)N=C(N(C)c2ccccc2)O1)c1ccccc1`, the concentration for total growth inhibition (TGI) with IGROV1 ovarian was determined as 75.7 µM; with HCC-2998 colon, 36.7 µM; with OVCAR-3 ovarian, 51.6 µM; in the experiment with COLO 205 colon, 46 µM; with HOP-92 NSCLC, 54.6 µM; in the experiment with MDA-MB-231 breast it was 41 µM. For the same molecule, the concentration for total growth inhibition (TGI) in the experiment with DU-145 prostate is 61.7 µM; in the experiment on MCF7 breast it was 38.9 µM; with ACHN renal it was 31.7 µM; in the experiment with UO-31 renal, 37.6 µM.

On to `CCOC(=O)C#Cc1ccc([N+](=O)[O-])cc1`, for which the TGI turned out to be 4.42 µM in the experiment with IGROV1 ovarian; 28.7 µM in the experiment on HCC-2998 colon; 3.13 µM in the experiment with OVCAR-3 ovarian; 3.09 µM with COLO 205 colon; 3.47 µM with HOP-92 NSCLC; 4.64 µM with MDA-MB-231 breast. Further, the TGI in the experiment on DU-145 prostate is 3.12 µM; with MCF7 breast, 2.49 µM; with ACHN renal, 10.2 µM; in the experiment on UO-31 renal it was 3.15 µM.

As for `CCC1CCCCN1C(=S)N/N=C(\C)c1ccccn1` (stereo not given), the GI50 in the experiment on IGROV1 ovarian is below 0.0304 µM; with HCC-2998 colon, 0.156 µM; in the experiment on OVCAR-3 ovarian it was below 0.0133 µM; in the experiment with COLO 205 colon it was 0.0227 µM; in the experiment with HOP-92 NSCLC it was 0.175 µM; with MDA-MB-231 breast, 0.0922 µM. Also, the GI50 in the experiment with DU-145 prostate was 0.292 µM; in the experiment with MCF7 breast it was below 0.0121 µM; in the experiment on ACHN renal, below 0.0175 µM; in the experiment on UO-31 renal, 0.134 µM. Besides, the TGI with IGROV1 ovarian worked out at 2.44 µM; in the experiment on HCC-2998 colon, 2.76 µM; with OVCAR-3 ovarian, 1.16 µM; in the experiment on COLO 205 colon, 0.379 µM; in the experiment on HOP-92 NSCLC, 1.85 µM; in the experiment with MDA-MB-231 breast it was 3.69 µM. Also, the TGI is 3.75 µM with DU-145 prostate, 4.2 µM in the experiment on MCF7 breast, 1.67 µM in the experiment with ACHN renal and 1.82 µM with UO-31 renal.
